9 compounds from patent US20260109732A1, “LIPID AMINES” (ModernaTX, Inc., priority 2021, published 2026) can be followed below.

A short description of data set [1]: Diameter and PDI from DLS measurements of mRNA nanoparticles with lipid amines. It is filed as physicochemical. In a few lines:
(§1)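 DLS gave size and PDI, and Ribogreen gave encapsulation, for luciferase- or CFTR-mRNA nanoparticles (N:P 4.93). Particles came from IL1/DSPC/cholesterol/PEG-DMG-2K mixed at pH 4, mRNA-loaded, neutralized with TRIS pH 8.12, and then treated with lipid amine SA50 in pH 7.5 buffer.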

Data set [2] concerns HeLa cells. The experiment in a line: CFTR Protein Expression Assay in HeLa Cells. The note with it: LNPs encapsulating CFTR mRNA, N=4 wells; 5 h serum-free then 24 h; immunofluorescence vs PBS control. The class given is cell-based, Human. In a few lines:
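Readout is fold-change in per-cell CFTR immunofluorescence intensity (488 nm, confocal imaging) relative to PBS-treated cells, from 4 replicate wells. LNPs encapsulating CFTR mRNA were applied serum-free for 5 h, followed by 24 h in complete medium before PFA fixation.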

Data set [3] is described as follows: Encapsulation of mRNA nanoparticles with lipid amines using Ribogreen assay. It is filed as physicochemical. The method in brief:
as §1

In data set [4] the test system is HeLa cells. Nature of the data set: Luciferase Protein Expression Assay in HeLa Cells. It is filed as cell-based, Human. As to conditions: LNPs encapsulating Luciferase mRNA, 25 ng per well, N=4 wells; 5 h serum-free then 24 h; ONE-Glo. The method in brief:
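Luminescence output, average RLU across N=4 wells, was measured with ONE-Glo after cell lysis. Before that, HeLa cells were exposed to 25 ng/well luciferase-mRNA nanoparticles (PBS control) for 5 h serum-free, then cultured overnight (24 h) in complete MEM.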

Setting [5] is: CFTR mRNA nanoparticle with lipid amine.
Setting [6] is: Luciferase mRNA nanoparticle modified with lipid amine.

Structures can show the parent of a compound that is named as a salt.

As to `CC[C@H](CC[C@@H](C)[C@H]1CC[C@H]2[C@@H]3CC=C4C[C@@H](OC(=O)N(CCCCCCN)CCCCCCN)CC[C@]4(C)[C@H]3CC[C@]12C)C(C)C` [SA82, (3S,8S,9S,10R,13R,14S,17R)-17-((2R,5R)-5-Ethyl-6-methylheptan-2-yl)-10,13-dimethyl-2,3,4,7,8,9,10,11,12,13,14,15,16,17-tetradecahydro-1H-cyclopenta[a]phenanthren-3-yl bis(6-aminohexyl)carbamate dihydrochloride], the results for the “Diameter (nm)” value in data set [1] (setting [5]) and in data set [1] (setting [6]) were 80.7 nm and 73 nm, respectively. Moreover, the PDI in data set [1] (setting [5]) was determined as 0.13; in data set [1] (setting [6]), 0.11. The “Average fold-change in CFTR signal intensity per cell compared to buffer control ± standard deviation” value in data set [2] is listed as 4.6 ± 0.2 fold-change. For the same compound, the “% Encapsulation (Ribogreen)” value in data set [3] (setting [5]) was determined as 99.4%; in data set [3] (setting [6]), 99.1%. In addition, the “Average Relative Light Units ± Standard Deviation” value in data set [4] stood at 33396.2 ± 4902.7 Relative Light Units.
For the compound `CC(C)CCC[C@@H](C)[C@H]1CC[C@H]2[C@@H]3CC=C4C[C@@H](OC(=O)N(CCCN)CCCCCCN)CC[C@]4(C)[C@H]3CC[C@]12C` [SA83, (3S,8S,9S,10R,13R,14S,17R)-10,13-Dimethyl-17-((R)-6-methylheptan-2-yl)-2,3,4,7,8,9,10,11,12,13,14,15,16,17-tetradecahydro-1H-cyclopenta[a]phenanthren-3-yl (6-aminohexyl)(3-aminopropyl)carbamate dihydrochloride], the “Diameter (nm)” value in data set [1] (setting [5]) is given as 82.3 nm; in data set [1] (setting [6]) it was 75 nm. The PDI was 0.15 in data set [1] (setting [5]) and 0.14 in data set [1] (setting [6]). The “Average fold-change in CFTR signal intensity per cell compared to buffer control ± standard deviation” value in data set [2] amounted to 4.8 ± 0.3 fold-change. Moreover, the “% Encapsulation (Ribogreen)” value came out at 99.8% in data set [3] (setting [5]) and 99.3% in data set [3] (setting [6]). Further, in data set [4], the “Average Relative Light Units ± Standard Deviation” value is 35394.8 ± 5033.2 Relative Light Units.
On to `CC[C@H](CC[C@@H](C)[C@H]1CC[C@H]2[C@@H]3CC=C4C[C@@H](OC(=O)N(CCCN)CCCCCCN)CC[C@]4(C)[C@H]3CC[C@]12C)C(C)C` [SA84, (3S,8S,9S,10R,13R,14S,17R)-17-((2R,5R)-5-Ethyl-6-methylheptan-2-yl)-10,13-dimethyl-2,3,4,7,8,9,10,11,12,13,14,15,16,17-tetradecahydro-1H-cyclopenta[a]phenanthren-3-yl (6-aminohexyl)(3-aminopropyl)carbamate dihydrochloride], for which the figures for the “Diameter (nm)” value in data set [1] (setting [5]) and in data set [1] (setting [6]) were 82 nm and 74 nm, respectively. Further, the PDI in data set [1] (setting [5]) was found to be 0.13; in data set [1] (setting [6]) it was 0.16. Also, the “Average fold-change in CFTR signal intensity per cell compared to buffer control ± standard deviation” value in data set [2] is on record as 5.0 ± 0.2 fold-change. In addition, the “% Encapsulation (Ribogreen)” value in data set [3] (setting [5]) was 99.5%; in data set [3] (setting [6]) it was 99.9%. For the same compound, the “Average Relative Light Units ± Standard Deviation” value in data set [4] is 29639.9 ± 7554 Relative Light Units.
For the compound `CC(C)CCC[C@@H](C)[C@H]1CC[C@H]2[C@@H]3CC=C4C[C@@H](OC(=O)N(CCCCNCC(F)CN)CC(F)CN)CC[C@]4(C)[C@H]3CC[C@]12C` (stereo partly drawn) [SA87, (3S,8S,9S,10R,13R,14S,17R)-10,13-dimethyl-17-((R)-6-methylheptan-2-yl)-2,3,4,7,8,9,10,11,12,13,14,15,16,17-tetradecahydro-1H-cyclopenta[a]phenanthren-3-yl (3-amino-2-fluoropropyl)(4-((3-amino-2-fluoropropyl)amino)butyl)carbamate trihydrochloride], the “Diameter (nm)” value was determined as 81.2 nm in data set [1] (setting [5]) and 75 nm in data set [1] (setting [6]). Also, the PDI turned out to be 0.1 in data set [1] (setting [5]) and 0.18 in data set [1] (setting [6]). For the same compound, the “Average fold-change in CFTR signal intensity per cell compared to buffer control ± standard deviation” value in data set [2] is on record as 3.2 ± 0.1 fold-change. In addition, the “% Encapsulation (Ribogreen)” value in data set [3] (setting [5]) was 99.5%; in data set [3] (setting [6]), 98.2%. Also, in data set [4], the “Average Relative Light Units ± Standard Deviation” value is 13346.1 ± 2590.8 Relative Light Units.
For `CC(C)CCC[C@@H](C)[C@H]1CC[C@H]2[C@@H]3CC=C4C[C@@H](OC(=O)N(CCCCNCC(O)CN)CC(O)CN)CC[C@]4(C)[C@H]3CC[C@]12C` (stereo partly drawn) [SA88, (3S,8S,9S,10R,13R,14S,17R)-10,13-dimethyl-17-((R)-6-methylheptan-2-yl)-2,3,4,7,8,9,10,11,12,13,14,15,16,17-tetradecahydro-1H-cyclopenta[a]phenanthren-3-yl (3-amino-2-hydroxypropyl)(4-((3-amino-2-hydroxypropyl)amino)butyl)carbamate trihydrochloride], the “Diameter (nm)” value in data set [1] (setting [5]) came to 89.4 nm; in data set [1] (setting [6]), 75 nm. Moreover, the values for the PDI in data set [1] (setting [5]) and in data set [1] (setting [6]) were 0.19 and 0.13, respectively. Moreover, the “Average fold-change in CFTR signal intensity per cell compared to buffer control ± standard deviation” value in data set [2] stood at 4.5 ± 0.2 fold-change. In addition, the “% Encapsulation (Ribogreen)” value amounted to 99.1% in data set [3] (setting [5]) and 99.8% in data set [3] (setting [6]). Moreover, in data set [4], the “Average Relative Light Units ± Standard Deviation” value is 17105.3 ± 7097.3 Relative Light Units.
On to `CC(C)CCC[C@@H](C)[C@H]1CC[C@H]2[C@@H]3CC=C4C[C@@H](OC(=O)CCCCC(=O)N(CCCN)CCCCNCCCN)CC[C@]4(C)[C@H]3CC[C@]12C` [SA89, (3S,8S,9S,10R,13R,14S,17R)-10,13-dimethyl-17-((R)-6-methylheptan-2-yl)-2,3,4,7,8,9,10,11,12,13,14,15,16,17-tetradecahydro-1H-cyclopenta[a]phenanthren-3-yl 6-((3-aminopropyl)(4-((3-aminopropyl)amino)butyl)amino)-6-oxohexanoate trihydrochloride], for which the “Diameter (nm)” value in data set [1] (setting [5]) stood at 86.5 nm; in data set [1] (setting [6]), 77 nm. The PDI in data set [1] (setting [5]) worked out at 0.15; in data set [1] (setting [6]), 0.16. Besides, in data set [2], the “Average fold-change in CFTR signal intensity per cell compared to buffer control ± standard deviation” value is recorded as 3.7 ± 0.4 fold-change. For the same compound, the “% Encapsulation (Ribogreen)” value in data set [3] (setting [5]) was 98.6%; in data set [3] (setting [6]), 99.7%. Further, the “Average Relative Light Units ± Standard Deviation” value in data set [4] stood at 8209.2 ± 4138.5 Relative Light Units.
With `CC[C@H](CC[C@@H](C)[C@H]1CC[C@H]2[C@@H]3CC=C4C[C@@H](OC(=O)CCCCC(=O)N(CCCN)CCCCNCCCN)CC[C@]4(C)[C@H]3CC[C@]12C)C(C)C` [SA90, (3S,8S,9S,10R,13R,14S,17R)-17-((2R,5R)-5-ethyl-6-methylheptan-2-yl)-10,13-dimethyl-2,3,4,7,8,9,10,11,12,13,14,15,16,17-tetradecahydro-1H-cyclopenta[a]phenanthren-3-yl 6-((3-aminopropyl)(4-((3-aminopropyl)amino)butyl)amino)-6-oxohexanoate trihydrochloride], the figures for the “Diameter (nm)” value in data set [1] (setting [5]) and in data set [1] (setting [6]) were 84.6 nm and 76 nm, respectively. Moreover, the values for the PDI in data set [1] (setting [5]) and in data set [1] (setting [6]) were 0.14 and 0.19, respectively. For the same compound, the “Average fold-change in CFTR signal intensity per cell compared to buffer control ± standard deviation” value in data set [2] is recorded as 4.2 ± 0.4 fold-change. The results for the “% Encapsulation (Ribogreen)” value in data set [3] (setting [5]) and in data set [3] (setting [6]) were 98.1% and 99.6%, respectively. For the same compound, in data set [4], the “Average Relative Light Units ± Standard Deviation” value is 9337.4 ± 3055.2 Relative Light Units.
Take `CC(C)CCC[C@@H](C)[C@H]1CC[C@H]2[C@@H]3CC=C4C[C@@H](OC(=O)N(CCCN)CCCCCCCCCCN)CC[C@]4(C)[C@H]3CC[C@]12C` [SA95, (3S,8S,9S,10R,13R,14S,17R)-10,13-Dimethyl-17-((R)-6-methylheptan-2-yl)-2,3,4,7,8,9,10,11,12,13,14,15,16,17-tetradecahydro-1H-cyclopenta[a]phenanthren-3-yl (10-aminodecyl)(3-aminopropyl)carbamate dihydrochloride]: the figures for the “Diameter (nm)” value in data set [1] (setting [5]) and in data set [1] (setting [6]) were 83.6 nm and 75 nm, respectively. In addition, the PDI in data set [1] (setting [5]) was 0.14; in data set [1] (setting [6]) it was 0.20. Also, the “Average fold-change in CFTR signal intensity per cell compared to buffer control ± standard deviation” value in data set [2] is 4.2 ± 0.8 fold-change. For the same compound, the “% Encapsulation (Ribogreen)” value stood at 99.3% in data set [3] (setting [5]) and 99.7% in data set [3] (setting [6]). Moreover, the “Average Relative Light Units ± Standard Deviation” value in data set [4] was determined as 22952.2 ± 5937.7 Relative Light Units.
With `CC[C@H](CC[C@@H](C)[C@H]1CC[C@H]2[C@@H]3CC=C4C[C@@H](OC(=O)N(CCCN)CCCCCCCCCCN)CC[C@]4(C)[C@H]3CC[C@]12C)C(C)C` [SA96, (3S,8S,9S,10R,13R,14S,17R)-17-((2R,5R)-5-Ethyl-6-methylheptan-2-yl)-10,13-dimethyl-2,3,4,7,8,9,10,11,12,13,14,15,16,17-tetradecahydro-1H-cyclopenta[a]phenanthren-3-yl (10-aminodecyl)(3-aminopropyl)carbamate dihydrochloride], the “Diameter (nm)” value is reported as 82.3 nm in data set [1] (setting [5]) and 71 nm in data set [1] (setting [6]). In addition, the PDI in data set [1] (setting [5]) came out at 0.12; in data set [1] (setting [6]), 0.15. For the same compound, in data set [2], the “Average fold-change in CFTR signal intensity per cell compared to buffer control ± standard deviation” value came to 5.2 ± 0.7 fold-change. Also, the “% Encapsulation (Ribogreen)” value in data set [3] (setting [5]) is reported as 98.9%; in data set [3] (setting [6]), 99.6%. Moreover, in data set [4], the “Average Relative Light Units ± Standard Deviation” value amounted to 17172.8 ± 2176 Relative Light Units.
